Measured values reported in ChEMBL document CHEMBL1641556, “MDCK cell permeability characteristics of a sulfenamide prodrug: strategic implications in considering sulfenamide prodrugs for oral delivery of NH-acids” (Bioorg Med Chem Lett, 2011).

Columns and labels:
[1] = Hydrolytic stability of the compound assessed as half life at pH 6; type: physicochemical; conditions: buffer
[2] = Apparent permeability from apical to basolateral side of MDCK cells; type: ADME, cell-based, Canis lupus familiaris; conditions: dog
[3] = Apparent permeability from basolateral to apical side of MDCK cells; type: ADME, cell-based, Canis lupus familiaris; conditions: dog

SMILES	t1/2 [1] [yr]	Papp A→B [2] [×10⁻⁶ cm/s]	Papp B→A [3] [×10⁻⁶ cm/s]
N[C@@H](CSNC(=O)c1ccccc1)C(=O)O	6.3		
CC(=O)NC[C@H]1CN(c2ccc(N3CCOCC3)c(F)c2)C(=O)O1 [LINEZOLID]		9	10.6
